Here are results for one compound from patent EP0574185B1, “PGE1 analogs” (NEWPHARMA INTERNATIONAL CORPORATION, priority 1992, dated 1993).

The assay has as its system isolated rat uterus under diestrous condition. The experiment in a line: B1: effect on isolated uterus of diestrous rat with basal spontaneous contractions (cumulative curves, Krebs solution). Also noted: species or system Wistar rats. The settings on record: basal 5,85. On the procedure: (B1)- Concentration-response curves on isolated rat uterus under diestrous condition were carried out. Wistar rats weighing 250 g to 300 g were employed. The diestrous phase was detected by a daily vaginal smear. The uterus was dissected out and a portion of a horn was placed in a 10 ml organ bath in a similar way to that described in part A. The bath temperature was maintained at 37°C, bubbled with a mixture of 95 % O2 and 5 % CO2 in a Krebs nutrient solution. The organ was left to stabilize for one hour. The isolated uterus presented basal spontaneous contractions under these experimental conditions. Cumulative concentration-response curves were carried out with the addition of either 100 µl or 300 µl of solutions of either natural prostaglandins or B-407 in concentrations of 10^-10 M to 10^-6 M, each 15 minutes without any washing. Uterine contractions and quantitation were performed as described in (A). (B2)- Concentration-response curves in isolated uterus under diestrous (without any spontaneous contractions) were carried out. Sodium diclofenac was added to De Jalon nutrient solution to a final concentration of 4x10^-6 M. The organ was left to stabilize until the absence of spontaneous contractions. Non-cumulative concentration-response curves were obtained. Recordings of the contractions and their quantitation were performed as described in (A).
The frequency and magnitude of the responses were globally evaluated by calculating the total area recorded at a fixed time period as will be further explained. The areas under the curve of the recording paper, over 15 minutes periods, were cut and weighed both in the concentration-response curves and in the potentiating experiments.
The calibration was made by weighing a piece of paper which corresponded to a tension of 1 g at the working sensitivity along 2 minutes. Therefore, a relationship of area expressed in g/2 min was obtained and then the weights of the areas of the responses were transformed to unities of area. The results were expressed as the mean ± the standard error of the areas obtained. The statistical evaluation of the differences was carried out either by ANOVA or by Student's-t-test, as appropriate.

With `CCCCC(C)(O)C/C=C/[C@H]1[C@H](O)CC(=O)[C@@H]1CCCC/C=C/C(=O)OC` (mixture of isomers) [B-407, trans-Δ^2-15-deoxy-16-hydroxy-16-methyl PGE1 methyl ester], the “Area (g of tension/2 min)” value runs as follows: (1x10^-6 M) 6,46 g of tension/2 min; (1x10^-7 M) 7,38 g of tension/2 min; (1x10^-8 M) 6,88 g of tension/2 min; (1x10^-9 M) 6,14 g of tension/2 min.
